Assay results from paper PMC7997572 (2020).

Tests used:
Experiment in all cases: CD melting
[1] = test system: Hairpin (DNA, hairpin) CGAATTCGTTTTCGAATTCG; conditions: K+ (20 mM potassium phosphate, 5 mM KCl; Table S1 note: 5 mM phosphate, 20 mM KCl); pH 7.0; 300 μM compound (10 equiv), 30 μM DNA
[2] = test system: Tel23-h (DNA, G4) TTAGGGTTAGGGTTAGGGTTAGGGTT; conditions: K+ (20 mM potassium phosphate, 5 mM KCl; Table S1 note: 5 mM phosphate, 20 mM KCl); pH 7.0; 150 μM compound (10 equiv), 15 μM DNA
[3] = test system: c-Myc (DNA, G4) TGAGGGTGGGTAGGGTGGGTAA; conditions: K+ (20 mM potassium phosphate, 5 mM KCl; Table S1 note: 5 mM phosphate, 20 mM KCl), pH 7.0, 150 μM compound (10 equiv), 15 μM DNA
[4] = test system: c-Kit2 (DNA, G4) CGGGCGGGCGCTAGGGAGGGT; conditions: K+ (20 mM potassium phosphate, 5 mM KCl; Table S1 note: 5 mM phosphate, 20 mM KCl); pH 7.0; 150 μM compound (10 equiv), 15 μM DNA
[5] = test system: c-Kit1 (DNA, G4) AGGGAGGGCGCTGGGAGGAGGG; conditions: K+ (20 mM potassium phosphate, 5 mM KCl; Table S1 note: 5 mM phosphate, 20 mM KCl); pH 7.0; 150 μM compound (10 equiv), 15 μM DNA
[6] = test system: Tel23-p (DNA, G4) TTAGGGTTAGGGTTAGGGTTAGGGTT; conditions: K+ (20 mM potassium phosphate, 5 mM KCl; Table S1 note: 5 mM phosphate, 20 mM KCl); pH 7.0; 150 μM compound (10 equiv), 15 μM DNA

Row | SMILES | ΔTm [1] [°C] | ΔTm [2] [°C] | ΔTm [5] [°C] | other results
1 | COc1cc2c(/C=N/NC(=N)N)c(Cl)n(C)c2cc1C | 7.0 ± 1.0 | – | – | –
2 | Cc1cc2c(cc1O)/C(=C\c1cccc(/C=N/NC(=N)N)c1)C(=O)N2 | – | 10.0 ± 1.0 | – | –
3 | O=C1Nc2c(ccc3ccccc23)/C1=C\c1cccc(/C=N/NC2=NCCN2)c1 | – | – | 14.5 ± 1.0 | ΔTm ([3]; exact value not determinable): > 22 °C; ΔTm [4]: 26.0 ± 1.0 °C
4 | CC(C)(C)c1cc(/C=N/NC(=N)N)c(O)c(/C=C2/C(=O)Nc3c2ccc2ccccc32)c1 | – | 1.0 ± 1.0 | 1.5 ± 1.0 | ΔTm [6]: 27.0 ± 1.0 °C
5 | NC(N)=N/N=C/c1c(Cl)n(C/C=C/c2ccccc2)c2ccccc12 | 0.0 ± 1.0 | – | – | –
6 | O=C1Nc2ccc(Cl)cc2/C1=C\c1cccc(/C=N/NC2=NCCN2)c1 | – | – | – | ΔTm [3]: 14.1 ± 1.0 °C
